Results: publication PMC3914206

Experiments:
Assay type in all cases: binding
panel of 442 kinases [1] = biological target: T1, panel of 442 kinases (Homo sapiens, UniProt Q9H2K8); conditions: kinase TAOK3; compound concentration 10 µM
T1 construct: purchased KINOMEscan
T1 sequence (Q9H2K8 1-898): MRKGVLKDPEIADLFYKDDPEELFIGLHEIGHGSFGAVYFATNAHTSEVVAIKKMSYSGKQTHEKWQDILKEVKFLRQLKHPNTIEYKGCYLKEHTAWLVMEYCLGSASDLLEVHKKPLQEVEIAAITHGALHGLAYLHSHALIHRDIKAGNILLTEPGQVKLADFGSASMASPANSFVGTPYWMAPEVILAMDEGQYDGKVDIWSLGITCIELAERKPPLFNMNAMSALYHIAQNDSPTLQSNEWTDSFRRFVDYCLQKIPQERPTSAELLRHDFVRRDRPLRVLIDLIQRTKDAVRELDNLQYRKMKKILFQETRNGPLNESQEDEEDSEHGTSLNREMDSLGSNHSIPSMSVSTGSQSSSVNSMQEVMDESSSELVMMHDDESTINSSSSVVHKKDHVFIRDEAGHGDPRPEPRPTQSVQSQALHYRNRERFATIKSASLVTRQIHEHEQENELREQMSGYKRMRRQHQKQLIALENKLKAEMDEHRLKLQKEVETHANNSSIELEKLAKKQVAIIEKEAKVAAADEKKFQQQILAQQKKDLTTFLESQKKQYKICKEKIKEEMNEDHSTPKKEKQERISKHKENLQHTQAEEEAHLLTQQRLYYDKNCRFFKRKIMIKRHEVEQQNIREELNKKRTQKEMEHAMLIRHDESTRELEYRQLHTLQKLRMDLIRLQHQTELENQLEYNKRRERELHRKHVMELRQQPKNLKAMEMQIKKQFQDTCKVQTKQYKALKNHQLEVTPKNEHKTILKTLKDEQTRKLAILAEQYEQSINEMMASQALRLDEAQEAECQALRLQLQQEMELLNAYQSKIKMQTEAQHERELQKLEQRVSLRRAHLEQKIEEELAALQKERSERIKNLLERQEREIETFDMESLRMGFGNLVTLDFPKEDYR
Description: (§1) We assessed the selectivity of members of this scaffold using the KINOMEscan methodology across a near comprehensive panel of 442 kinases [[18,27]].

panel of 442 kinases [2] = biological target: T2, panel of 442 kinases (Homo sapiens, UniProt Q9BVS4); conditions: Compound Concentration 10 µM
T2 construct: purchased KINOMEscan
Description: as §1

panel of 442 kinases [3] = biological target: T3, panel of 442 kinases (Homo sapiens, UniProt Q14289); conditions: Compound Concentration 10 µM
T3 construct: purchased KINOMEscan
Description: as §1

T3 sequence (Q14289 whole entry): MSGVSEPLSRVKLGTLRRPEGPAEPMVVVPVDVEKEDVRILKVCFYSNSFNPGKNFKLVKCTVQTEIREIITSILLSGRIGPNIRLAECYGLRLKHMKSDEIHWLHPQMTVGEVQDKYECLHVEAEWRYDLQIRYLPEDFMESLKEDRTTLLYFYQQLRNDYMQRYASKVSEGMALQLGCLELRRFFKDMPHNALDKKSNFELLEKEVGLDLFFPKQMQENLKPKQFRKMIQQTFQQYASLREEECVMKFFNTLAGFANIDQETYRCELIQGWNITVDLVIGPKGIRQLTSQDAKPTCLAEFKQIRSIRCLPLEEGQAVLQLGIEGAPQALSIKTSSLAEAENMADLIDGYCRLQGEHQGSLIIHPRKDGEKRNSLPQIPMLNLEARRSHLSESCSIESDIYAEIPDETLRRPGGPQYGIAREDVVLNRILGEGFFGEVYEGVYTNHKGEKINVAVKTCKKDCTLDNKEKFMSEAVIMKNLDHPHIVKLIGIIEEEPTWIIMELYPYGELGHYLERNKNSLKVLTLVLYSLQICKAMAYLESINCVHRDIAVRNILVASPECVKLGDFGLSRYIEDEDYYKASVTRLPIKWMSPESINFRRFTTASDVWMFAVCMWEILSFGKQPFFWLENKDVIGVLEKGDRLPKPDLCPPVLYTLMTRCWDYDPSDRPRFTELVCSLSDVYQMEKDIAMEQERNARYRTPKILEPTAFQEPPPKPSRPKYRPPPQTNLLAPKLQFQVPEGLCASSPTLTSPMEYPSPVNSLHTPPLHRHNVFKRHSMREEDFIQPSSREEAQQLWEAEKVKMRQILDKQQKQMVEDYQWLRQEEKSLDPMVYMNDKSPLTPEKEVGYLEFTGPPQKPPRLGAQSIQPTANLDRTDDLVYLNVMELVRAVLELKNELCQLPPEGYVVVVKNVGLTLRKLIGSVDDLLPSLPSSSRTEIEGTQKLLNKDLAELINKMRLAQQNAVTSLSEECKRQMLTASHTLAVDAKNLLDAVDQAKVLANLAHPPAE
T2 sequence (Q9BVS4 whole entry): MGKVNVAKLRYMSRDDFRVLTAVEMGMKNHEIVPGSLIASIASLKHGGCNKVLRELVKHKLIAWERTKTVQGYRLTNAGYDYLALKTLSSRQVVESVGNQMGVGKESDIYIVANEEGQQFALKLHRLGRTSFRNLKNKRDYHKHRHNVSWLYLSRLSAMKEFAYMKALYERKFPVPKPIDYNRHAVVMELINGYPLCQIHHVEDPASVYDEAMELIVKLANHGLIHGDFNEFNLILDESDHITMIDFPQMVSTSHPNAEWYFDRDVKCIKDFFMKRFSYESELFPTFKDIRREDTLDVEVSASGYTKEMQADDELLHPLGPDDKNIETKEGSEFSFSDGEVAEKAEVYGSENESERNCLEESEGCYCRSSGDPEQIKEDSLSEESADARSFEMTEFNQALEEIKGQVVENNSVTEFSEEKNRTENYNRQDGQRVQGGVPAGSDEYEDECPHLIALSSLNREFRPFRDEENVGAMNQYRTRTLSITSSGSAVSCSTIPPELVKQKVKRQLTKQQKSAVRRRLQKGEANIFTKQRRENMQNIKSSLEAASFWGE

Row | SMILES | % Ctrl, TAOK3 (panel of 442 kinases [1]) [% Ctrl] | KINOMEscan: RIOK2 (panel of 442 kinases [2]) | KINOMEscan: PYK2 (panel of 442 kinases [3])
1 | COc1cc(C(=O)N2CCC(N3CCN(C)CC3)CC2)ccc1Nc1ncc2c(n1)N(C1CCCC1)c1ccccc1C(=O)N2C [Compound 25, 11-cyclopentyl-2-((2-methoxy-4-(4-(4-methylpiperazin-1-yl)piperidine-1-carbonyl)phenyl)amino)-5-methyl-5H-benzo[e]pyrimido[5,4-b][1,4]diazepin-6(11H)-one] | 100 | 93 | 17
2 | CCOc1cc(C(=O)N2CCC(N3CCN(C)CC3)CC2)ccc1Nc1ncc2c(n1)N(C1CCCC1)c1ccccc1C(=O)N2C [Compound 26] | 82 | 81 | 43
3 | COc1cc(C(=O)N2CCC(N3CCN(C)CC3)CC2)ccc1Nc1ncc2c(n1)N1CCc3cccc(c31)C(=O)N2C [Compound 24] | 100 | 81 | 77
4 | COc1cc(C(=O)N2CCC(N3CCN(C)CC3)CC2)ccc1Nc1ncc2c(n1)N(C)c1ccccc1C(=O)N2C [15 (LRRK2-IN-1)] | 24 | 100 | 78
